Reference: the CheMixHub ionic liquid set
± gives the uncertainty stated by the source.

Test: xn = mol fraction of the nth substance listed

CC(=O)[O-].Cn1cc[n+](C)c1 + O
293.15 K, 101.3 kPa
Details | electrical conductivity [S/m]
x2 = 0 | 0.275 ± 0.001
x2 = 0.0799 | 0.561 ± 0.001
x2 = 0.1095 | 0.863 ± 0.001
x2 = 0.2767 | 1.457 ± 0.001
x2 = 0.4986 | 2.733 ± 0.001
x2 = 0.5673 | 3.384 ± 0.001
x2 = 0.7029 | 5.091 ± 0.001
x2 = 0.7484 | 5.772 ± 0.001
x2 = 0.8651 | 7.166 ± 0.001
x2 = 0.8897 | 6.824 ± 0.001
x2 = 0.9043 | 5.765 ± 0.001
x2 = 0.9388 | 2.782 ± 0.001
x2 = 0.9483 | 2 ± 0.001
x2 = 0.9579 | 1.213 ± 0.001
x2 = 0.9681 | 0.729 ± 0.001

CC[N+](C)(CC)CCOC.F[B-](F)(F)F + CC[N+](C)(CC)CCOC.O=S(=O)([N-]S(=O)(=O)C(F)(F)F)C(F)(F)F
100 kPa
Details | electrical conductivity [S/m]
293.15 K, x2 = 0.1 | 0.112 ± 0.007
298.15 K, x2 = 0.3 | 0.19 ± 0.011
298.15 K, x2 = 0.7 | 0.227 ± 0.014
298.15 K, x2 = 0.9 | 0.267 ± 0.016
303.15 K, x2 = 0.9 | 0.341 ± 0.02
308.15 K, x2 = 0.3 | 0.325 ± 0.02
308.15 K, x2 = 0.5 | 0.356 ± 0.021
313.15 K, x2 = 0.2 | 0.388 ± 0.023
313.15 K, x2 = 0.3 | 0.409 ± 0.025
313.15 K, x2 = 0.8 | 0.495 ± 0.03
318.15 K, x2 = 0.4 | 0.525 ± 0.032
318.15 K, x2 = 0.7 | 0.573 ± 0.034
323.15 K, x2 = 0.2 | 0.595 ± 0.036
323.15 K, x2 = 0.3 | 0.612 ± 0.037
328.15 K, x2 = 0.2 | 0.722 ± 0.043
328.15 K, x2 = 0.6 | 0.806 ± 0.048
333.15 K, x2 = 0.1 | 0.892 ± 0.054
333.15 K, x2 = 0.5 | 0.911 ± 0.055
333.15 K, x2 = 0.7 | 0.948 ± 0.057
338.15 K, x2 = 0.7 | 1.1 ± 0.066
343.15 K, x2 = 0.2 | 1.19 ± 0.071
343.15 K, x2 = 0.3 | 1.19 ± 0.071
343.15 K, x2 = 0.8 | 1.25 ± 0.075

O=S(=O)([O-])C(F)(F)F.[Li+] + CCCC[n+]1ccn(C)c1.N#C[N-]C#N
electrical conductivity [S/m], 101 kPa
Details | x2 = 0.8612 | x2 = 0.8907 | x2 = 0.9197 | x2 = 0.9504 | x2 = 0.9799
288.15 K | 0.236 ± 0.024 | – | 0.387 ± 0.039 | 0.489 ± 0.049 | 0.591 ± 0.06
298.15 K | 0.399 ± 0.04 | 0.521 ± 0.053 | 0.625 ± 0.063 | 0.776 ± 0.078 | 0.91 ± 0.091
333.15 K | 1.4 ± 0.14 | 1.72 ± 0.17 | 1.91 ± 0.19 | 2.25 ± 0.23 | 2.55 ± 0.26

O=C(O)CC(O)C(=O)O (stereo not drawn) + CCCC[N+](CCCC)(CCCC)CCCC.[Cl-] + O
100 kPa, x2 = 0.1428, x1 = 0.1428
Details | electrical conductivity [S/m] | viscosity [mPa·s]
293.15 K | 0.0722 ± 0.0072 | 283 ± 64
303.15 K | 0.113 ± 0.011 | 191 ± 34
313.15 K | 0.173 ± 0.017 | 133 ± 17
323.15 K | 0.257 ± 0.026 | 94 ± 7.8
333.15 K | 0.373 ± 0.037 | 68.1 ± 2.8

CNC=O + CC[n+]1ccn(C)c1.F[B-](F)(F)F
298 K, 101 kPa
Details | electrical conductivity [S/m]
x1 = 0.21 | 2.08 ± 0.17
x1 = 0.47 | 2.73 ± 0.22
x1 = 0.66 | 2.95 ± 0.24

CC[n+]1ccn(C)c1.O=S(=O)([O-])C(F)(F)F + OCC(O)CO
100 kPa
Details | electrical conductivity [S/m] | viscosity [mPa·s]
293.15 K, x1 = 0.002 | – | 1372 ± 64
293.15 K, x2 = 0.199 | – | 48.9 ± 1
293.15 K, x2 = 0.605 | – | 97.9 ± 2.6
293.15 K, x2 = 0.698 | – | 146.4 ± 4.3
293.15 K, x2 = 0.962 | – | 968 ± 42
298.15 K, x1 = 0.002 | 0.000274 ± 1.1e-05 | –
298.15 K, x1 = 0.004 | 0.00056 ± 2e-05 | –
298.15 K, x1 = 0.011 | 0.00141 ± 6e-05 | –
298.15 K, x1 = 0.018 | 0.00247 ± 0.0001 | –
298.15 K, x2 = 0.401 | 0.68 ± 0.03 | 45.4 ± 1
303.15 K, x2 = 0.962 | – | 425 ± 15
313.15 K, x1 = 0.002 | 0.00084 ± 3e-05 | –
313.15 K, x1 = 0.004 | 0.00176 ± 7e-05 | –
313.15 K, x1 = 0.011 | 0.00439 ± 0.00018 | –
313.15 K, x1 = 0.018 | 0.0079 ± 0.0003 | 243 ± 7.4
313.15 K, x2 = 0.299 | 1.27 ± 0.05 | 23.4 ± 0.5

CCCCCCCCCCCCCC[P+](CCCCCC)(CCCCCC)CCCCCC.N#Cc1nc[n-]c1C#N + COCCOCCOCCOCCOC
viscosity [mPa·s], 100 kPa
Details | 278.15 K | 283.15 K | 288.15 K | 293.15 K | 298.15 K | 303.15 K | 308.15 K | 313.15 K | 318.15 K | 323.15 K
x2 = 0.201 | 1051 ± 66 | 723 ± 41 | 507 ± 25 | 365 ± 16 | 269 ± 10 | 203 ± 6 | 156 ± 4 | 123 ± 3 | 98 ± 5 | 79 ± 5
x2 = 0.401 | 389 ± 17 | 283 ± 11 | 209 ± 7 | 158 ± 4 | 122 ± 3 | 97 ± 2 | 77 ± 1 | 63 ± 1 | – | –

CCCCC[N+](CCCCC)(CCCCC)CCCCC.[Br-] + CCCCCCCCCCCCOS(=O)(=O)[O-].[Na+] + O
viscosity [mPa·s], 100 kPa
Details | x2 = 1.81e-06, x1 = 0.0001802 | x2 = 3.62e-06, x1 = 0.0001802 | x2 = 5.43e-06, x1 = 0.0001802 | x2 = 7.23e-06, x1 = 0.0001802 | x2 = 9.04e-06, x1 = 0.0001802 | x2 = 1.085e-05, x1 = 0.0001802 | x2 = 1.266e-05, x1 = 0.0001802 | x2 = 1.447e-05, x1 = 0.0001802 | x2 = 1.628e-05, x1 = 0.0001802 | x2 = 1.808e-05, x1 = 0.0001802
293.15 K | 1.024 ± 0.027 | 1.026 ± 0.027 | 1.027 ± 0.027 | 1.028 ± 0.027 | 1.028 ± 0.027 | 1.029 ± 0.027 | 1.029 ± 0.027 | 1.029 ± 0.027 | 1.03 ± 0.027 | 1.03 ± 0.027
298.15 K | 0.914 ± 0.027 | 0.916 ± 0.027 | 0.917 ± 0.027 | 0.917 ± 0.027 | 0.919 ± 0.027 | 0.92 ± 0.027 | 0.921 ± 0.027 | 0.921 ± 0.027 | 0.922 ± 0.027 | 0.922 ± 0.027
303.15 K | 0.8 ± 0.027 | 0.801 ± 0.027 | 0.802 ± 0.027 | 0.803 ± 0.027 | 0.803 ± 0.027 | 0.803 ± 0.027 | 0.803 ± 0.027 | 0.803 ± 0.027 | 0.804 ± 0.027 | 0.805 ± 0.027
308.15 K | 0.723 ± 0.026 | 0.723 ± 0.026 | 0.724 ± 0.026 | 0.724 ± 0.026 | 0.724 ± 0.026 | 0.724 ± 0.026 | 0.725 ± 0.026 | 0.725 ± 0.026 | 0.726 ± 0.026 | 0.726 ± 0.026
313.15 K | 0.658 ± 0.026 | 0.659 ± 0.026 | 0.66 ± 0.026 | 0.66 ± 0.026 | 0.661 ± 0.026 | 0.661 ± 0.026 | 0.661 ± 0.026 | 0.661 ± 0.026 | 0.662 ± 0.026 | 0.662 ± 0.026
318.15 K | 0.604 ± 0.026 | 0.605 ± 0.026 | 0.605 ± 0.026 | 0.605 ± 0.026 | 0.606 ± 0.026 | 0.606 ± 0.026 | 0.606 ± 0.026 | 0.606 ± 0.026 | 0.606 ± 0.026 | 0.606 ± 0.026

CC[n+]1ccn(C)c1.O=S(=O)([O-])C(F)(F)F + O=[N+]([O-])[O-].[Li+]
101 kPa, x1 = 1
Details | electrical conductivity [S/m]
288.15 K | 0.605 ± 0.061
298.15 K | 0.859 ± 0.086
333.15 K | 2.24 ± 0.22

CC[n+]1ccn(C)c1.O=S(=O)([O-])C(F)(F)F + O
101 kPa
Details | electrical conductivity [S/m] | viscosity [mPa·s]
293.15 K, x1 = 0.004 | – | 1.07 ± 0.02
293.15 K, x1 = 0.029 | – | 1.67 ± 0.04
293.15 K, x1 = 0.041 | – | 2.01 ± 0.04
293.15 K, x1 = 0.463 | – | 13.6 ± 0.3
297.45 K, x2 = 0.304 | 1.17 ± 0.02 | –
298.15 K, x1 = 0.005 | 1.4 ± 0.1 | 0.99 ± 0.02
298.15 K, x1 = 0.012 | 2.3 ± 0.1 | 1.11 ± 0.02
298.15 K, x1 = 0.017 | – | 1.23 ± 0.03
298.15 K, x1 = 0.041 | – | 1.78 ± 0.04
298.15 K, x1 = 0.064 | 4.4 ± 0.2 | 2.17 ± 0.05
298.15 K, x1 = 0.137 | 4.6 ± 0.2 | 3.71 ± 0.08
303.15 K, x1 = 0.008 | – | 0.92 ± 0.02
303.15 K, x1 = 0.017 | – | 1.09 ± 0.02
303.15 K, x1 = 0.137 | – | 3.27 ± 0.07
303.15 K, x1 = 0.391 | – | 8.23 ± 0.17
303.65 K, x2 = 0.304 | 1.46 ± 0.03 | –
305.35 K, x2 = 0.304 | 1.58 ± 0.03 | –
313.15 K, x1 = 0.004 | – | 0.7 ± 0.02
313.15 K, x1 = 0.017 | 3.9 ± 0.2 | 0.89 ± 0.02
313.15 K, x1 = 0.029 | 5.1 ± 0.2 | 1.05 ± 0.02
313.15 K, x1 = 0.137 | 6.3 ± 0.3 | 2.58 ± 0.05
